In one assay the test system is PfCRT variant E18A. Kind of assay: CQ uptake assay, oocytes expressing E18A. The format is cell-based, Plasmodium falciparum. Here is the method: (§1) Site-directed mutagenesis of PfCRT^Dd2 was performed as described using the megaprimer method with overlap extension[21],[54]. The primer pairs used are listed in Supplementary Table 6. Please note that a codon-optimized and oocyte-adapted version of PfCRT^Dd2 was used[22] (Supplementary Fig. 16). The resulting DNA fragment was cloned into the SP64T expression vector and verified by sequencing.
(§2) Oocytes were obtained as described previously. Briefly, adult (>2 years old) female X. laevis frogs (NASCO) were anesthetized in a cooled solution of ethyl 3-amino benzoate methanesulfonate (0.1%, w/v), followed by a surgical removal of parts of the ovary. The ovary lobes were carefully dissected and small pieces of oocytes were incubated in Ca^2+-free ND96 buffer (96 mM NaCl, 2 mM KCl, 1 mM MgCl2 buffered with 5 mM HEPES/NaOH, pH 7.5) supplemented with collagenase D (0.1%, w/v; Roche), BSA (0.5%, w/v), and 9 mm Na2HPO4 at 18 °C for 14-16 h while gentle shaking. After incubation, the oocytes were carefully washed several times with ND96 buffer (96 mM NaCl, 2 mM KCl, 1.8 mM CaCl2, 1 mM MgCl2 buffered with 5 mM HEPES/NaOH, pH 7.5) supplemented with 100 mg l^−1 gentamycin). Defolliculated and healthy-looking stage V-VI oocytes were manually selected for RNA microinjection. The RNA was generated as following: The codon-optimized sequences of PfCRT variants were cloned into the pSP64T expression vector. After vector linearization using the restriction endonucleases BamHI or SalI (New England Biolabs), transcription was performed using the in vitro SP6 mMessage mMachine Kit (Ambion)[34]. The obtained RNA was kept at −80 °C and diluted with nuclease-free water to a concentration of 0.6 μg μl^−1. Precision-bore glass capillary tubes (3.5-inch glass capillaries; Drummond Scientific Co.) were pulled on a vertical puller (P-87 Flaming/Brown micropipette puller, Sutter Instrument Co.), graduated, and placed on a microinjector (Nanoject II Auto-Nanoliter Injector, Drummond Scientific Co.). 50 nl of nuclease-free water alone (control oocytes) or 50 nl of 0.6 μg μl^−1 RNA were injected under stereomicroscopic control. Injected oocytes were incubated for 46–72 h at 18 °C with twice-daily buffer changes before usage in experiments.
Drug uptake assays were performed as described previously[21],[22],[24],[34]. […] The direction of radio-labeled drug transport is here from the mostly acidic extracellular solution (pH 4.5 or 6.0, as indicated) into the oocyte cytosol (pH ∼ 7.2), which corresponds to the efflux of drug from the acidic digestive vacuole (pH 5.2) into the parasite cytoplasm (pH 7.2). The topology of PfCRT in the oolemma is such that both the N- and C-terminus face the extracellular milieu[3],[22]. In the parasite, the N- and C-terminus face the lumen of the digestive vacuole. CQ uptake kinetics were performed by incubating oocytes in ND96 buffer adjusted to a pH of 4.5, 5.0, 5.5, or 6.0 and supplemented with 50 nM [^3H]CQ and one of 7 different CQ concentrations (10 µM, 50 µM, 100 µM, 200 µM, 300 µM, 400 µM, 500 µM CQ). The reaction was stopped at the 60 min time point, which is in the linear uptake range[22],[34] (Supplementary Fig. 17). For determination of the amount of drug uptake for each oocyte, the reaction medium was removed and the oocytes were washed three times with 2 ml of ice-cold ND96 buffer. Each oocyte was individually transferred to a scintillation vial containing 5% sodium dodecyl sulfate (200 μl) for lysis. The radioactivity of each sample was measured using a liquid scintillation analyzer Tri-Carb 4910 TR (PerkinElmer). Oocytes that were injected with water instead of RNA were analyzed in parallel, representing the uptake of a drug by diffusion and/or endogenous permeation pathways. The resulting value represents the “background“ level of drug accumulation in oocytes (in-depth discussion in[22]). […]

The target in another assay is T1, PfCRT variant E207L (Plasmodium falciparum, UniProt Q9N623, A220S/E207L/I356T/K76T/M74I/N326S/N75E/Q271E/R371I).
T1 construct: expressed in transfected cells; host or cells: Xenopus laevis oocytes injected with in vitro transcribed RNA (pSP64T)
T1 sequence (Q9N623 1-424 M74I/N75E/K76T/E207L/A220S/Q271E/N326S/I356T/R371I): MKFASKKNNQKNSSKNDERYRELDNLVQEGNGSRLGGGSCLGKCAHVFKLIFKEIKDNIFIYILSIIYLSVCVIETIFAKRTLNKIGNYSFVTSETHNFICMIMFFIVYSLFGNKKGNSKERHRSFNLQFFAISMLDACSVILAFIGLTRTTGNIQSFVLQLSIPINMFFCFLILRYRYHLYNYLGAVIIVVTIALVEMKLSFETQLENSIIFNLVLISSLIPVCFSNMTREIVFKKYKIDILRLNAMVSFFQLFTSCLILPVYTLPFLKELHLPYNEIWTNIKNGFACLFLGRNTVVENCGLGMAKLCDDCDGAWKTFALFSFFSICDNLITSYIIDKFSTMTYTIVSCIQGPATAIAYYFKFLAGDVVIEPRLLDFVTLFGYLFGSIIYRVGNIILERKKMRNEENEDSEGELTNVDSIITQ
Kind of assay: CQ uptake assay, oocytes expressing E207L. It is filed as cell-based. As to the method:
as §1, §2
Drug uptake assays were performed as described previously[21],[22],[24],[34]. […] The direction of radio-labeled drug transport is here from the mostly acidic extracellular solution (pH 4.5 or 6.0, as indicated) into the oocyte cytosol (pH ∼ 7.2), which corresponds to the efflux of drug from the acidic digestive vacuole (pH 5.2) into the parasite cytoplasm (pH 7.2). The topology of PfCRT in the oolemma is such that both the N- and C-terminus face the extracellular milieu[3],[22]. In the parasite, the N- and C-terminus face the lumen of the digestive vacuole. […] For determination of the amount of drug uptake for each oocyte, the reaction medium was removed and the oocytes were washed three times with 2 ml of ice-cold ND96 buffer. Each oocyte was individually transferred to a scintillation vial containing 5% sodium dodecyl sulfate (200 μl) for lysis. […] Oocytes that were injected with water instead of RNA were analyzed in parallel, representing the uptake of a drug by diffusion and/or endogenous permeation pathways. The resulting value represents the “background“ level of drug accumulation in oocytes (in-depth discussion in[22]). The specific PfCRT-mediated uptake was determined by subtracting the corresponding background value measured in water-injected oocytes from that of PfCRT-expressing oocytes. In all cases, at least three separate experiments were performed on oocytes from different frogs (biological replicate), and for each condition in an experiment, measurements were made from 10 oocytes per treatment. For pH 5.5, 6.0, and 6.5, ND96 was buffered with 5 mM MES/Tris base.

[1] abbreviates: E18A, 50 µM CQ, 1 h, mean ± SEM.
The mark [2] stands for this setting: E207L, 50 µM CQ, 1 h, mean ± SEM.

Molecules are shown by their SMILES. “And” between values parts separate entries of the source, which are not always exact repeats. Equal values may be shown once.

Regarding `CCN(CC)CCCC(C)Nc1ccnc2cc(Cl)ccc12` (stereo not drawn) [CQ, chloroquine], the “Activity at pH 4.5” value in the assay on PfCRT variant E18A (setting [1]) is reported as 1.51 ± 0.34 pmol h-1 oocyte-1; on PfCRT variant E207L (setting [2]), 2.10 ± 0.17 pmol h-1 oocyte-1. Further, the “Activity at pH 6.0” value with PfCRT variant E18A (setting [1]) worked out at 2.60 ± 0.53 pmol h-1 oocyte-1; at PfCRT variant E207L (setting [2]) it was 2.25 ± 0.22 pmol h-1 oocyte-1. For the same compound, the R-value in the assay with PfCRT variant E18A (E18A, CQ transport at pH 4.5 / pH 6.0) was determined as 0.57 ± 0.06; at PfCRT variant E207L (E207L, CQ transport at pH 4.5 / pH 6.0), 0.95 ± 0.04. In the assay with PfCRT variant E18A (pH 4.5, single replicates, Fig 1d left), the “E18A transport activity pH 4.5” value is 2.19 pmol oocyte-1 h-1 and 1.60 pmol oocyte-1 h-1 and 0.74 pmol oocyte-1 h-1. The “E18A R-value” in the assay on PfCRT variant E18A (pH 4.5 vs pH 6.0, Fig 1d left) was 0.57 and 0.70 and 0.44. In addition, in the assay on PfCRT variant E18A (pH 6.0, single replicates, Fig 1d left), the “E18A transport activity pH 6.0” value was 3.85 pmol oocyte-1 h-1 and 2.27 pmol oocyte-1 h-1 and 1.67 pmol oocyte-1 h-1. Also, on PfCRT variant E207L (pH 4.5, individual replicates, Fig 6b), the “E207L transport activity pH 4.5” value is 2.14 pmol oocyte-1 h-1 and 2.36 pmol oocyte-1 h-1 and 2.37 pmol oocyte-1 h-1 and 1.53 pmol oocyte-1 h-1. Also, at PfCRT variant E207L (pH 6.0, individual replicates, Fig 6b), the “E207L transport activity pH 6.0” value was 2.70 pmol oocyte-1 h-1 and 2.35 pmol oocyte-1 h-1 and 1.52 pmol oocyte-1 h-1. Further, at PfCRT variant E207L (ratio of activity pH 4.5 / pH 6.0), the “E207L R-value” was 0.79 and 1.00 and 0.98 and 1.01.
